Key:
[1] = Storage stability of ointment at 40° C. and 75% RH: content against initial content; type: physicochemical; conditions: storage at 40° C. and 75% RH 1 month or 25° C. 3 months, Table 5
Experimental: To confirm the storage stability of the compound represented by formula (II) in the preparation, the content (%) of the compound after a storage at 40° C. and 75% RH against the content at the time of initiation, was determined.
To confirm the storage stability of the compound represented by formula (II) in the preparation, the contents (%) of the compound after storages at 40° C. and 75% RH, and at 50° C. against the content at the time of initiation, was determined.
To confirm the storage stability of the compound represented by formula (II) in the preparation, the contents (%) of the compound after a storage at 40° C. and 75% RH, or at 25° C. against the content at the time of initiation, was determined.

NC/Nga mice = test: Spontaneous scratching action after ointment application; type: in vivo; conditions: ointment applied to NC/Nga mice; FIG. 2
Experimental: [FIG. 2] A graph showing the number of scratching action (average value ±SE, n=8) when a present ointment was applied to NC/Nga mice.
(§1) According to the methods described in the literature (Japanese Laid-open patent publication Nos. 2005-247843 and 2005-247842), measurements of the spontaneous action of scratching and the amount of transdermal water evaporation were performed with regard to the compound represented by formula (II). A test was performed, using ointments prepared in the same manner as in Example 4 to have the compound represented by formula (II) at concentrations of 0.0001% and 0.001%.

[2] = tested on: BALB/c mice having the skin barrier destroyed by chafing; test: Transdermal water evaporation (TEWL) after ointment application; type: in vivo; conditions: ointment applied to BALB/c mice with skin barrier destroyed by chafing, compared with base only; FIG. 3
Experimental: [FIG. 3] A graph showing the amount of transdermal evaporation of water (TEWL, average value ±SE, n=8) when a present ointment was applied to BALB/c mice having the skin barrier destroyed by chafing.
as §1

O=C(O)CSCCCC[C@@H]1[C@@H](C#C[C@@H](O)C2CCCCC2)[C@H](O)C[C@H]1Cl [compound represented by formula (II)]
storage stability (in words) [1]: stable in the drugs
number of scratching action (NC/Nga mice): a decrease in the scratching action
amount of transdermal evaporation of water (TEWL) [2]: a decrease in the amount of transdermal water evaporation

Reference: patent US20080167379A1, “Ointment” (TAISHO PHARMACEUTICAL CO., LTD., priority 2005, published 2008)
